Source: patent publication US20240208992A1, “MACROCYCLES AS CFTR MODULATORS” (Idorsia Pharmaceuticals Ltd, priority 2021, published 2024)

Molecular target: human F508del-CFTR (Homo sapiens, UniProt P13569, DEL508-508)
Assay: F508del-CFTR cell surface expression (corrector activity), DiscoveRx ß-galactosidase complementation chemiluminescence assay in recombinant U2OS cell line;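 further: U2OS cells co-expressing ProLink-tagged F508del-CFTR and a membrane-anchored enzyme acceptor, where more surface CFTR restores β-galactosidase activity measured by chemiluminescence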
Conditions: U2OS cells, 16h compound incubation; for EC50: EC50, F508del-CFTR cell surface expression, geomean of several measurements; for Emax: U2OS, in relation to the Emax of the corrector lumacaftor (=100%), arithmetic mean

Sequence of human F508del-CFTR (P13569 with tags, fused parts or gaps DEL508-508): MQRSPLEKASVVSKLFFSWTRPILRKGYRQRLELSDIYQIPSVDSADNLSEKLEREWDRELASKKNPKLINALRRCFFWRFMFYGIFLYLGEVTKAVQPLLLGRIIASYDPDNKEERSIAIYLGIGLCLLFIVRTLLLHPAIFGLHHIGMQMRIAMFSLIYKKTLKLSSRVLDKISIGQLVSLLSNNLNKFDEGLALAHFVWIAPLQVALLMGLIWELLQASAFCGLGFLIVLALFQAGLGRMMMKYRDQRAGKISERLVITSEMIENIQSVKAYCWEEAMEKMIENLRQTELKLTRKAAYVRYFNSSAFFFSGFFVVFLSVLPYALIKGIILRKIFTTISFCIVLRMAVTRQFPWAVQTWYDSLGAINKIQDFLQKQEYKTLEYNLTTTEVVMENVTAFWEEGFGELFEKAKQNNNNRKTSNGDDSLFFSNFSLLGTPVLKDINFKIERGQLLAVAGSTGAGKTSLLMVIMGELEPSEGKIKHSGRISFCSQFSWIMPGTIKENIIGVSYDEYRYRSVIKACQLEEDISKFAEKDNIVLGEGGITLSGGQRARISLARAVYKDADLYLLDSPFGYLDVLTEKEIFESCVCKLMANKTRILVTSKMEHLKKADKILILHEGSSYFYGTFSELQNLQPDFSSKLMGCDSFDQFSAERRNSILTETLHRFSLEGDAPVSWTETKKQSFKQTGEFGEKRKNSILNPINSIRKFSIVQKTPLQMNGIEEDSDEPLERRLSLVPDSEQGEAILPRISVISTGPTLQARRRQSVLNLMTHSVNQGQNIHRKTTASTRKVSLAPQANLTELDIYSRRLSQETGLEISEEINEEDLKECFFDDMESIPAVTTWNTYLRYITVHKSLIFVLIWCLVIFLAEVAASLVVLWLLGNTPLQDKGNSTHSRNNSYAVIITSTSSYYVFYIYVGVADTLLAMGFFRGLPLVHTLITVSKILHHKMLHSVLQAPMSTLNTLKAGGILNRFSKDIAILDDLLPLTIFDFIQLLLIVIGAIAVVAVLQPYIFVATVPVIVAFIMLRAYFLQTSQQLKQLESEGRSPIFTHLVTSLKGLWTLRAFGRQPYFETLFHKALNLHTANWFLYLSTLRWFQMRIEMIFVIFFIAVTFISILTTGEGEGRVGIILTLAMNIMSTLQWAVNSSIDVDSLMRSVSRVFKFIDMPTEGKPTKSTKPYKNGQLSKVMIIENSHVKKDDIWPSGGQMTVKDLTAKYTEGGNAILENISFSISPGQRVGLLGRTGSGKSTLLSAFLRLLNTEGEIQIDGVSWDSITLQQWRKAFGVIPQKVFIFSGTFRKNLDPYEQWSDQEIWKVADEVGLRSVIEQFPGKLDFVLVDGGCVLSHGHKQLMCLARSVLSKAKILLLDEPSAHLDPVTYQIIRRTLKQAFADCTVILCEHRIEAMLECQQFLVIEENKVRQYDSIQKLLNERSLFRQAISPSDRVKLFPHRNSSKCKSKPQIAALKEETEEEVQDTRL

Structure (SMILES) | EC50 [nM] | Emax [%]
COc1noc(CCNC(=O)[C@@H]2CC(=O)N(C)[C@@H](CC(C)C)C(=O)N(C)[C@H](Cc3nc(C(F)(F)F)no3)C(=O)N[C@H](Cc3ccccc3)COc3ccnc(OC)c3C(=O)N2)n1 [Example 949, (3R,6R,9S,13S)-3-benzyl-9-isobutyl-16-methoxy-N-(2-(3-methoxy-1,2,4-oxadiazol-5-yl)ethyl)-7,10-dimethyl-5,8,11,15-tetraoxo-6-((3-(trifluoromethyl)-1,2,4-oxadiazol-5-yl)methyl)-2,3,4,5,6,7,8,9,10,11,12,13,14,15-tetradecahydropyrido[3,4-p][1]oxa[4,7,10,14]tetraazacycloheptadecine-13-carboxamide] | 113 | 518
Cc1cc2c3c(ccc2cn1)OC[C@@H](Cc1ccccc1)NC(=O)C1(CC(F)(F)C1)N(C)C(=O)[C@H](CC(C)C)N(C)C(=O)C[C@@H](C(=O)NCCc1nc(C2CC2)no1)NC3=O [Example 952, (3′S,7′S,13′R)-13′-benzyl-N-(2-(3-cyclopropyl-1,2,4-oxadiazol-5-yl)ethyl)-3,3-difluoro-7′-isobutyl-6′,9′,20′-trimethyl-1′,5′,8′,11′-tetraoxo-2′,3′,4′,5′,6′,7′,8′,9′,11′,12′,13′,14′-dodecahydro-1′H-spiro[cyclobutane-1,10′-[1]oxa[4,7,10,14]tetraazacycloheptadecino[16,17-f]isoquinoline]-3′-carboxamide] | 339 | 438
COc1cc(CCNC(=O)[C@@H]2CC(=O)N(C)[C@@H](CC(C)C)C(=O)N(C)C3(CC(F)(F)C3)C(=O)N[C@H](Cc3ccccc3)COc3ccc4cnc(C)cc4c3C(=O)N2)on1 [Example 953, (3′S,7′S,13′R)-13′-benzyl-3,3-difluoro-7′-isobutyl-N-(2-(3-methoxyisoxazol-5-yl)ethyl)-6′,9′,20′-trimethyl-1′,5′,8′,11′-tetraoxo-2′,3′,4′,5′,6′,7′,8′,9′,11′,12′,13′,14′-dodecahydro-1′H-spiro[cyclobutane-1,10′-[1]oxa[4,7,10,14]tetraazacycloheptadecino[16,17-f]isoquinoline]-3′-carboxamide] | 268 | 394
COc1noc(CCNC(=O)[C@@H]2CC(=O)N(C)[C@@H](CC(C)C)C(=O)N(C)C3(CC(F)(F)C3)C(=O)N[C@H](Cc3ccccc3)COc3ccc4cnc(C)cc4c3C(=O)N2)n1 [Example 954, (3′S,7′S,13′R)-13′-benzyl-3,3-difluoro-7′-isobutyl-N-(2-(3-methoxy-1,2,4-oxadiazol-5-yl)ethyl)-6′,9′,20′-trimethyl-1′,5′,8′,11′-tetraoxo-2′,3′,4′,5′,6′,7′,8′,9′,11′,12′,13′,14′-dodecahydro-1′H-spiro[cyclobutane-1,10′-[1]oxa[4,7,10,14]tetraazacycloheptadecino[16,17-f]isoquinoline]-3′-carboxamide] | 382 | 383
Cc1cc2c3c(ccc2cn1)OC[C@@H](Cc1ccccc1)NC(=O)C1(CC(F)(F)C1)N(C)C(=O)[C@H](CC(C)C)N(C)C(=O)C[C@@H](C(=O)NCCn1nnc(C2CC2)n1)NC3=O [Example 955, (3′S,7′S,13′R)-13′-benzyl-N-(2-(5-cyclopropyl-2H-tetrazol-2-yl)ethyl)-3,3-difluoro-7′-isobutyl-6′,9′,20′-trimethyl-1′,5′,8′,11′-tetraoxo-2′,3′,4′,5′,6′,7′,8′,9′,11′,12′,13′,14′-dodecahydro-1′H-spiro[cyclobutane-1,10′-[1]oxa[4,7,10,14]tetraazacycloheptadecino[16,17-f]isoquinoline]-3′-carboxamide] | 381 | 394
Cc1cc2c3c(ccc2cn1)OC[C@@H](Cc1ccccc1)NC(=O)[C@@H](CC(F)(F)F)N(C)C(=O)[C@H](CC(C)C)N(C)C(=O)C[C@@H](C(=O)NCCn1nnc(C2CC2)n1)NC3=O [Example 959, (3S,7S,10R,13R)-13-benzyl-N-(2-(5-cyclopropyl-2H-tetrazol-2-yl)ethyl)-7-isobutyl-6,9,20-trimethyl-1,5,8,11-tetraoxo-10-(2,2,2-trifluoroethyl)-1,2,3,4,5,6,7,8,9,10,11,12,13,14-tetradecahydro-[1]oxa[4,7,10,14]tetraazacycloheptadecino[16,17-f]isoquinoline-3-carboxamide] | 222 | 413
COCCn1cc(CCNC(=O)[C@@H]2CC(=O)N(C)[C@@H](CC(C)C)C(=O)N(C)[C@H](Cc3nc(C(F)(F)F)no3)C(=O)N[C@H](Cc3ccccc3)COc3cc(C)nc(OC)c3C(=O)N2)cn1 [Example 961, (3R,6R,9S,13S)-3-benzyl-9-isobutyl-16-methoxy-N-(2-(1-(2-methoxyethyl)-1H-pyrazol-4-yl)ethyl)-7,10,18-trimethyl-5,8,11,15-tetraoxo-6-((3-(trifluoromethyl)-1,2,4-oxadiazol-5-yl)methyl)-2,3,4,5,6,7,8,9,10,11,12,13,14,15-tetradecahydropyrido[3,4-p][1]oxa[4,7,10,14]tetraazacycloheptadecine-13-carboxamide] | 353 | 453
COCCn1cc(CCNC(=O)[C@@H]2CC(=O)N(C)[C@@H](CC(C)C)C(=O)N(C)[C@H](Cc3nc(C(F)(F)F)no3)C(=O)N[C@H](Cc3ccccc3)COc3ccc4ncc(F)cc4c3C(=O)N2)cn1 [Example 962, (3S,7S,10R,13R)-13-benzyl-20-fluoro-7-isobutyl-N-(2-(1-(2-methoxyethyl)-1H-pyrazol-4-yl)ethyl)-6,9-dimethyl-1,5,8,11-tetraoxo-10-((3-(trifluoromethyl)-1,2,4-oxadiazol-5-yl)methyl)-1,2,3,4,5,6,7,8,9,10,11,12,13,14-tetradecahydro-[1]oxa[4,7,10,14]tetraazacycloheptadecino[16,17-f]quinoline-3-carboxamide] | 103 | 453

Continued, values first:

EC50 [nM] | Emax [%] | Structure (SMILES)
201 | 464 | Cc1cc2c3c(ccc2cn1)OC[C@@H](Cc1ccccc1)NC(=O)[C@@H](CC(F)(F)F)N(C)C(=O)[C@H](CC(C)C)N(C)C(=O)C[C@@H](C(=O)NCCc1noc(C2CC2)n1)NC3=O [Example 950, (3S,7S,10R,13R)-13-benzyl-N-(2-(5-cyclopropyl-1,2,4-oxadiazol-3-yl)ethyl)-7-isobutyl-6,9,20-trimethyl-1,5,8,11-tetraoxo-10-(2,2,2-trifluoroethyl)-1,2,3,4,5,6,7,8,9,10,11,12,13,14-tetradecahydro-[1]oxa[4,7,10,14]tetraazacycloheptadecino[16,17-f]isoquinoline-3-carboxamide]
165 | 405 | Cc1cc2c3c(ccc2cn1)OC[C@@H](Cc1ccccc1)NC(=O)[C@@H](CC(F)(F)F)N(C)C(=O)[C@H](CC(C)C)N(C)C(=O)C[C@@H](C(=O)NCCc1nc(C2CC2)no1)NC3=O [Example 951, (3S,7S,10R,13R)-13-benzyl-N-(2-(3-cyclopropyl-1,2,4-oxadiazol-5-yl)ethyl)-7-isobutyl-6,9,20-trimethyl-1,5,8,11-tetraoxo-10-(2,2,2-trifluoroethyl)-1,2,3,4,5,6,7,8,9,10,11,12,13,14-tetradecahydro-[1]oxa[4,7,10,14]tetraazacycloheptadecino[16,17-f]isoquinoline-3-carboxamide]
508 | 412 | Cc1cc2c3c(ccc2cn1)OC[C@@H](Cc1ccccc1)NC(=O)[C@@H](CC(F)(F)F)N(C)C(=O)[C@H](CC(C)C)N(C)C(=O)C[C@@H](C(=O)NCCc1cc(C2CC2)no1)NC3=O [Example 956, (3S,7S,10R,13R)-13-benzyl-N-(2-(3-cyclopropylisoxazol-5-yl)ethyl)-7-isobutyl-6,9,20-trimethyl-1,5,8,11-tetraoxo-10-(2,2,2-trifluoroethyl)-1,2,3,4,5,6,7,8,9,10,11,12,13,14-tetradecahydro-[1]oxa[4,7,10,14]tetraazacycloheptadecino[16,17-f]isoquinoline-3-carboxamide]
192 | 451 | COc1cc(CCNC(=O)[C@@H]2CC(=O)N(C)[C@@H](CC(C)C)C(=O)N(C)[C@H](CC(F)(F)F)C(=O)N[C@H](Cc3ccccc3)COc3ccc4cnc(C)cc4c3C(=O)N2)on1 [Example 957, (3S,7S,10R,13R)-13-benzyl-7-isobutyl-N-(2-(3-methoxyisoxazol-5-yl)ethyl)-6,9,20-trimethyl-1,5,8,11-tetraoxo-10-(2,2,2-trifluoroethyl)-1,2,3,4,5,6,7,8,9,10,11,12,13,14-tetradecahydro-[1]oxa[4,7,10,14]tetraazacycloheptadecino[16,17-f]isoquinoline-3-carboxamide]
338 | 439 | Cc1cc2c3c(ccc2cn1)OC[C@@H](Cc1ccccc1)NC(=O)[C@@H](CC(F)(F)F)N(C)C(=O)[C@H](CC(C)C)N(C)C(=O)C[C@@H](C(=O)NCCc1cc(C2CC2)on1)NC3=O [Example 958, (3S,7S,10R,13R)-13-benzyl-N-(2-(5-cyclopropylisoxazol-3-yl)ethyl)-7-isobutyl-6,9,20-trimethyl-1,5,8,11-tetraoxo-10-(2,2,2-trifluoroethyl)-1,2,3,4,5,6,7,8,9,10,11,12,13,14-tetradecahydro-[1]oxa[4,7,10,14]tetraazacycloheptadecino[16,17-f]isoquinoline-3-carboxamide]
85 | 507 | COc1noc(CCNC(=O)[C@@H]2CC(=O)N(C)[C@@H](CC(C)C)C(=O)N(C)[C@H](CC(F)(F)F)C(=O)N[C@H](Cc3ccccc3)COc3ccc4cnc(C)cc4c3C(=O)N2)c1F [Example 960, (3S,7S,10R,13R)-13-benzyl-N-(2-(4-fluoro-3-methoxyisoxazol-5-yl)ethyl)-7-isobutyl-6,9,20-trimethyl-1,5,8,11-tetraoxo-10-(2,2,2-trifluoroethyl)-1,2,3,4,5,6,7,8,9,10,11,12,13,14-tetradecahydro-[1]oxa[4,7,10,14]tetraazacycloheptadecino[16,17-f]isoquinoline-3-carboxamide]
